# Test results published in patent EP1171141B1, “MEDICAMENT FOR INHIBITING THE NF-kB TRANSCRIPTION FACTOR” (Max Zeller Söhne AG, priority 1999, dated 2000).
# Columns and labels:
# Format in all cases: cell-based
# COX-2 = target: T1, COX-2 (Homo sapiens, UniProt P35354); assay: cell-based
# T1 construct: Dazu wurden Mono Mac 6 Zellen mit unterschiedlichen Konzentrationen der Testsubstanzen während 30 min inkubiert; endogenous in cells; host or cells: Mono Mac 6 cells, LPS-stimulated
# T1 sequence (P35354 18-604): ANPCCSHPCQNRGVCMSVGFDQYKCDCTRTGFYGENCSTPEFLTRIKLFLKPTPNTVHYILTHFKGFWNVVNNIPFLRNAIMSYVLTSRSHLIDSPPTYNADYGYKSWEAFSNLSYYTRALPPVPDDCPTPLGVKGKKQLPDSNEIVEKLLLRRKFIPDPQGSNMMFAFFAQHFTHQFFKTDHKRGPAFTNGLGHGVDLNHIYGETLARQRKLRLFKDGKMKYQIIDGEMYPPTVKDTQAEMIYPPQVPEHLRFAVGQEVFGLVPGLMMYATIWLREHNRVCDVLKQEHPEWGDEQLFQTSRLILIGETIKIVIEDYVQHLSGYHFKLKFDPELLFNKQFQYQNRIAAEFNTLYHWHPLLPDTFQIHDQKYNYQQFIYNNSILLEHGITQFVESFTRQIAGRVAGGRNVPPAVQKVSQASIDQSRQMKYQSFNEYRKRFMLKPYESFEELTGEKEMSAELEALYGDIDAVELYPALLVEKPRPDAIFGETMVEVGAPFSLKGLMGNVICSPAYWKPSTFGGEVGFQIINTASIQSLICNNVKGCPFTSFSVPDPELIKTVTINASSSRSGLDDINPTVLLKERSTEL
# Experimental: Zur Bestimmung der COX-2-Hemmwirkung wurde allgemein nach der Methode von Berg et al., J. Pharmacol. Toxicol.
# Dazu wurden Mono Mac 6 Zellen mit unterschiedlichen Konzentrationen der Testsubstanzen während 30 min inkubiert. Anschliessend wurde Lipopolysaccharid (LPS, 100 ng/ml) zupipettiert und nochmals sechs Stunden inkubiert. Anschliessend wurde Arachidonsäure zugegeben (Endkonzentration 30 µM), während 15 Min. inkubiert und das gebildete Keto-PGF1α mittels ELISA (Enzyme Linked Immuno Sorbent Assay) bestimmt.
# In einer Variante wurden Testsubstanz und LPS zeitgleich eingesetzt. Die Messung der COX1 Hemmung erfolgte in HEL-Zellen nach der Methode von Berg et al., J. Pharmacol. Toxicol. […] Dabei wurden HEL Zellen mit unterschiedlichen Konzentrationen der Testsubstanzen während 30 min inkubiert, anschliessend Arachidonsäure zugesetzt (Endkonzentration 30 µM), während 15 Min. inkubiert und das gebildete Tromboxan B2 mittels ELISA gemessen. […]
# COX-1 = target: T2, COX-1 (Homo sapiens, UniProt P23219); assay: COX-1 inhibition in HEL cells (Tromboxan B2 by ELISA)
# T2 construct: Die Messung der COX1 Hemmung erfolgte in HEL-Zellen nach der Methode von Berg et al; endogenous in cells; host or cells: HEL cells
# T2 sequence (P23219 24-599): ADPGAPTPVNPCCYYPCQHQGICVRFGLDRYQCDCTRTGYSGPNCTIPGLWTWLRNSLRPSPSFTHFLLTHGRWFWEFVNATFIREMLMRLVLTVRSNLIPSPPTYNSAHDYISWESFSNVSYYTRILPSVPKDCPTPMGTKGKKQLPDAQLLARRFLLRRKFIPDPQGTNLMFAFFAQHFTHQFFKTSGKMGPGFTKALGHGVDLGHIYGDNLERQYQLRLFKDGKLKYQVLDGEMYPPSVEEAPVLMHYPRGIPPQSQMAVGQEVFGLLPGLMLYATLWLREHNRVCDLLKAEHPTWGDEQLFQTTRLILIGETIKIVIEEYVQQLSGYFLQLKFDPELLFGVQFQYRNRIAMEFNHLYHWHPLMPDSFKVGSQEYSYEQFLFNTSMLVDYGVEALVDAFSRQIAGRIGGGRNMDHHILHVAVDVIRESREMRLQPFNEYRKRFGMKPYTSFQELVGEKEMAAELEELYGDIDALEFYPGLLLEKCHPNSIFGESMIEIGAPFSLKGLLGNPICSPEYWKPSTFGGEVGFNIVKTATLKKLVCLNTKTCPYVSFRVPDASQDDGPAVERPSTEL
# Experimental: In einer Variante wurden Testsubstanz und LPS zeitgleich eingesetzt. Die Messung der COX1 Hemmung erfolgte in HEL-Zellen nach der Methode von Berg et al., J. Pharmacol. Toxicol. Methods 37, 179-186 (1997). Dabei wurden HEL Zellen mit unterschiedlichen Konzentrationen der Testsubstanzen während 30 min inkubiert, anschliessend Arachidonsäure zugesetzt (Endkonzentration 30 µM), während 15 Min. inkubiert und das gebildete Tromboxan B2 mittels ELISA gemessen.
# NF-κB = NF-κB inhibition of test compounds, NF-κB binding to DNA by EMSA (Jurkat T cells and cell extracts); conditions: Jurkat T cells
# Excerpt: Bestimmt wurde dabei die in-vivo und die in-vitro NF-κB Bindung an DNA durch Messung der elektrophoretischen Mobilitätsverschiebung.
# Die in vivo Bindung wurde mit Jurkat T-Zellen durchgeführt. Die Zellen wurden während einer Stunde mit verschiedenen Konzentrationen der verschiedenen Extrakte inkubiert und anschliessend mit TNF-α während einer Stunde stimuliert. Total-Protein-Extrakte der Zellen wurden gewonnen und in einem Assay auf elektrophoretische Mobilitätsverschiebung (electrophoretic mobility shift assay, EMSA) auf NF-κB-bindende Aktivität geprüft.
# Die in vitro Bindung wurde ebenfalls mit Jurkat T-Zellen geprüft. Zellextrakle von stimulierten wie unstimulierten Zellen wurden gewonnen. Gleiche Proteinmengen (10-20 µg) wurden 2 Stunden mit Konzentrationsreihen der zu testenden Verbindungen inkubiert und schliesslich auf elektrophoretische Mobilitätsverschiebung (EMSA) analysiert.
SMILES,IC50 (COX-2),IC50 (COX-1),"NF-κB: Grenzkonzentration, bei der eben noch ein Hemmeffekt im EMSA feststellbar ist (NF-κB)","präferentielle Hemmung der induzierbaren COX-2 (COX-2; COX-2 versus COX-1, statement on Table 2)"
CN1CCN(c2ccc3c(=O)n4c(nc3c2)C(=O)c2cc(F)ccc2-4)CC1 [Verbindung 32],1000 nM,1000 nM,10 µM/Liter,
O=C1c2cc(Cl)ccc2-n2c1nc1ccccc1c2=O [Verbindung 10],500 nM,1000 nM,5 µM/Liter,
O=C1c2ccccc2-n2c1nc1ccc(Cl)cc1c2=O [Verbindung 5],2000 nM,10000 nM,50 µM/Liter,
O=C1c2cc(Cl)ccc2-n2c1nc1cc(N3CCOCC3)ccc1c2=O [Verbindung 86],10 nM,5000 nM,"0,5 µM/Liter",besonders deutliche präferentielle Hemmung der induzierbaren COX-2
CN(CC(=O)O)c1ccc2c(=O)n3c(nc2c1)C(=O)c1cc(Cl)ccc1-3 [Verbindung 99],500 nM,5000 nM,1 µM/Liter,
CN(CCO)c1ccc2c(=O)n3c(nc2c1)C(=O)c1cc(OC(F)(F)F)ccc1-3 [Verbindung 110],500 nM,2000 nM,5 µM/Liter,
Nc1ccc2nc3n(c(=O)c2c1)-c1ccc(F)cc1C3=O [Verbindung 20],500 nM,5000 nM,5 µM/Liter,
CCOC(=O)c1ccc2c(c1)C(=O)c1nc3ccccc3c(=O)n1-2 [Verbindung 37],> 50000 nM,> 50000 nM,>100 µM/Liter,
CC1CN(c2cc3c(cc2F)C(=O)c2nc4ccccc4c(=O)n2-3)CCN1C(=O)OC(C)(C)C (centres unmarked) [Verbindung 42],> 50000 nM,> 50000 nM,>100 µM/Liter,
"O=C1c2ccccc2-n2c1nc1ccccc1c2=O [Verbindung 1, Indolo[2,1-b]chinazolin-6,12-dion]",,2000 nM,,
Cc1cc(C)c2nc3n(c(=O)c2c1)-c1ccc(F)cc1C3=O [Verbindung 24],> 50000 nM,> 50000 nM,>100 µM/Liter,
CCCCCCCCS(=O)(=O)c1ccc2c(c1)C(=O)c1nc3c(OC)cccc3c(=O)n1-2 [Verbindung 69],> 50000 nM,> 50000 nM,>100 µM/Liter,
